Legend:
Experiment in all cases: relative viability (nuclei count vs DMSO), 5 days (fraction); higher = more cells survive
[1] = compound: CC1=C(C(=NN1)C)CC2=C(C3=C(S2)N(C(=O)N(C3=O)C)CC(C)C)C(=O)N4C[C@@H](CO4)O + CC1(C)CCC(c2ccc(Cl)cc2)=C(CN2CCN(c3ccc(C(=O)NS(=O)(=O)c4ccc(N[C@H](CCN5CCOCC5)CSc5ccccc5)c(S(=O)(=O)C(F)(F)F)c4)cc3)CC2)C1 [Navitoclax] (partner 0.5 µM)
In short: (§1)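 Five library-drug doses in √10 steps were combined with a fixed anchor-drug dose, or a single drug was given alone, by pin tool to lung cancer cell lines in 1536-well plates the day after seeding. Nuclei were stained and counted after 5 days. Relative viability is the nuclei count in treated wells over that in vehicle wells, taken as the median of duplicate plates.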

[2] = compound: CC1=C(C(=NN1)C)CC2=C(C3=C(S2)N(C(=O)N(C3=O)C)CC(C)C)C(=O)N4C[C@@H](CO4)O + COc1cc2c(Oc3ccc(NC(=O)C4(C(=O)Nc5ccc(F)cc5)CC4)cc3F)ccnc2cc1OCCCN1CCOCC1 [Foretinib] (partner 0.25 µM)
In short: as §1

IDH-C35 = compound: Cc1ccccc1C(C(=O)NC1CCCCC1)N(C(=O)Cn1ccnc1C)c1cccc(F)c1 [IDH-C35]
In short: (§2)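 Five library-drug doses spaced by √10 were pinned onto vehicle-anchored 1536-well plates of lung cancer cell lines that had been kept overnight at 37 °C. Cells went 5 days without medium change, then were fixed, permeabilised and Hoechst-stained together, imaged at 4× and counted by MetaXpress. Viability is the ratio of treated-well to vehicle-well nuclei, taken as a median over plates. Plates required control CV below 25% and at least one doubling.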

[3] = compound: CC1=C(C(=NN1)C)CC2=C(C3=C(S2)N(C(=O)N(C3=O)C)CC(C)C)C(=O)N4C[C@@H](CO4)O
In short: as §2

Cell Line	relative viability ([1]; first compound 0.0025 µM)	relative viability ([1]; first compound 0.007906 µM)	relative viability ([1]; first compound 0.025 µM)	relative viability ([1]; first compound 0.07906 µM)	relative viability ([1]; first compound 0.25 µM)	relative viability ([2]; first compound 0.0025 µM)	relative viability ([2]; first compound 0.007906 µM)	relative viability ([2]; first compound 0.025 µM)	relative viability ([2]; first compound 0.07906 µM)	relative viability ([2]; first compound 0.25 µM)	relative viability (IDH-C35; 0.08 µM)	relative viability (IDH-C35; 0.253 µM)	relative viability (IDH-C35; 0.8 µM)	relative viability (IDH-C35; 2.53 µM)	relative viability (IDH-C35; 8 µM)	relative viability ([3]; 0.0025 µM)	relative viability ([3]; 0.007906 µM)	relative viability ([3]; 0.025 µM)	relative viability ([3]; 0.07906 µM)	relative viability ([3]; 0.25 µM)
NCI-H441	0.473	0.577	0.686	0.763	0.678	1.43	1.2	0.826	0.937	0.968	1.11	0.892	1	0.982	0.909	1	1.05	0.901	1.08	1.13
LOU-NH91	0.773	0.604	0.776	0.809	0.788	0.931	0.877	0.988	1.02	0.972	0.945	0.986	0.987	0.917	0.96	1	0.989	1.01	1.12	1.03
NCI-H3122	1.02	1.04	0.996	1.01	0.995	0.936	0.982	0.988	0.99	0.983	0.999	1.02	1.01	0.985	0.973	1.01	0.971	0.99	1.01	1.03
NCI-H460	1.19	1.26	0.994	1.13	1.34	1.01	1.09	0.949	1.01	1.11	1.01	0.99	1.01	0.957	0.94	1.02	1.08	0.955	0.968	1.06
NCI-H1793	0.617	0.415	0.411	0.435	0.501	0.67	0.784	0.732	0.665	0.605	0.961	0.874	0.844	0.859	0.994	0.94	0.995	1	0.886	0.686
NCI-H1734	0.843	1.1	0.772	0.931	1.02	0.811	0.976	0.896	0.9	0.916	1.06	1.04	1	0.879	0.995	1.01	1.16	1.03	0.889	0.962
LXF-289	0.885	0.904	0.94	0.935	1	0.963	0.926	1.02	0.994	1.03	1.02	1	1.02	0.99	0.997	1.02	1.02	0.975	0.971	1.02
H3255	0.562	0.542	0.516	0.487	0.568	1.03	0.968	0.784	0.802	0.775	0.955	1	0.988	0.978	1.11	1.01	0.925	0.866	0.94	1.1
201T	1.22	1.22	1.17	1.14	1.21	1.18	1.16	1.02	1.11	1.2	0.985	0.983	1.01	1	0.958	1.04	0.983	0.982	0.96	0.988
NCI-H2126	0.852	0.877	0.882	0.829	0.826	1.28	0.958	1.03	1.29	0.947	1.01	1.02	0.965	0.937	0.92	1.05	1.01	1	0.935	1.06
HOP-62	1.15	1.03	0.857	1.08	0.857	1.2	1.09	1.04	1.06	1.09	1.03	1.03	0.957	0.81	0.964	0.962	0.976	0.953	0.977	1.17
CAL-12T	1.27	1.39	1.03	1.37	1.33	1.08	1.3	1.05	1.25	1.17	0.982	1.04	0.982	1.05	0.979	1.03	1.03	0.958	1.12	1.13
NCI-H520	1.22	1.16	0.654	0.558	0.683	0.894	0.73	0.701	0.564	0.692	1.01	1.05	0.87	0.91	1	1.03	0.914	0.644	0.79	0.628
NCI-H1755	1.05	1.03	1	1	1.06	0.97	0.996	0.873	0.911	0.897	1.05	0.961	0.968	1.03	1.01	1.03	1	1.03	0.989	1.03
NCI-H2023	0.981	0.946	0.957	0.979	0.986	0.871	0.809	0.959	0.898	1.03	0.981	1.08	0.959	0.981	0.994	1.03	1.09	0.934	0.976	1.03
NCI-H2009	1.23	1.21	1.11	1.18	1.22	1.16	1.27	1.17	1.35	1.15	1.03	1.03	1.01	0.988	0.946	1.07	1.08	0.963	1.09	1.09
